Target: USP30 (Homo sapiens (Human), UniProt Q70CQ3)
Assay: USP30 biochemical FP (fluorescence polarisation) IC50 assay
Conditions: USP30 biochemical FP or FI IC50 assay (table does not say which per compound); read-out: IC50 range
Experimental: In Vitro USP30 FP Inhibition Assay
USP30 Biochemical IC50 Assay
Dilution plates were prepared at 21 times the final concentration (2100 μM for a final concentration of 100 μM) in 50% DMSO in a 96-well polypropylene V-bottom plate (Greiner #651201). A typical 8-point dilution series would be 100, 30, 10, 3, 1, 0.3, 0.1, 0.03 μM final. Reactions were performed in duplicate in black 384 well plates (small volume, Greiner 784076) in a final reaction volume of 21 μl. Either 1 μl of 50% DMSO or diluted compound was added to the plate. USP30 was diluted in reaction buffer (40 mM Tris, pH 7.5, 0.005% Tween 20, 0.5 mg/ml BSA, 5 mM beta-mercaptoethanol) to the equivalent of 0.05 μl/well and 10 μl of diluted USP30 was added to the compound. Enzyme and compound were incubated for 30 min at room temp. Reactions were initiated by the addition of 50 nM of TAMRA labelled peptide linked to ubiquitin via an iso-peptide bond as fluorescence polarisation substrate. Reactions were read immediately after addition of substrate and following a 2 hr incubation at room temperature. Readings were performed on a Pherastar Plus (BMG Labtech). λ Excitation 540 nm; λ Emission 590 nm.

Sequence of USP30 (Q70CQ3 57-517): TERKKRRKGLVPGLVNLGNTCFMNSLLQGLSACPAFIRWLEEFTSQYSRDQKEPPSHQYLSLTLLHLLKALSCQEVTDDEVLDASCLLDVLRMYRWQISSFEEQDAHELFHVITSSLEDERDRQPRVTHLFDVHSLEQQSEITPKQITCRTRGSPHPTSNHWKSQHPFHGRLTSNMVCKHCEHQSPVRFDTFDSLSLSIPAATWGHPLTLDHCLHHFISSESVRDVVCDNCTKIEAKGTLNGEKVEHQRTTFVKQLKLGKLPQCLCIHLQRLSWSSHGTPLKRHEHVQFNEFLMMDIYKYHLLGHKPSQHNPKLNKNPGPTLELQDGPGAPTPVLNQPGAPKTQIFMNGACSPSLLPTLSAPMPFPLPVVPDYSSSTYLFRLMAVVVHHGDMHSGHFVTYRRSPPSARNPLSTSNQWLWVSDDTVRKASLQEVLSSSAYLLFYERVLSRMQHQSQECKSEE

IC50 [µM] | Molecule
< 0.1 | Cc1noc(C)c1-c1ccc2cc(C(=O)N(C)[C@@H]3CCN(C#N)C3)[nH]c2c1 [Example 262, (R)-N-(1-cyanopyrrolidin-3-yl)-6-(3,5-dimethylisoxazol-4-yl)-N-methyl-1H-indole-2-carboxamide]
0.1 to 1 | N#CN1C[C@H](NC(=O)c2ccc(-c3ccccc3)cc2)[C@@H](F)C1 (relative stereo) [Example 176, N-((trans)-1-cyano-4-fluoropyrrolidin-3-yl)-[1,1′-biphenyl]-4-carboxamide]
0.1 to 1 | N#CN1CC[C@@H](NC(=O)c2cc(F)c(N3CCOCC3)cc2F)C1 [Example 144, (R)-N-(1-cyanopyrrolidin-3-yl)-2,5-difluoro-4-morpholinobenzamide]
< 0.1 | N#CN1CC[C@@H](NC(=O)c2cc(-c3ccc(Cl)cc3)no2)C1 [Example 218, (R)-3-(4-chlorophenyl)-N-(1-cyanopyrrolidin-3-yl)isoxazole-5-carboxamide]

More lines, now with the values behind:

Molecule | IC50 [µM]
N-((R)-1-cyanopyrrolidin- 3-yl)-((2S,6R)-2,6- dimethylmorpholino)-5- fluoroisonicotinamide [Example 140] | 0.1 to 1
Cn1cc(-c2ccc(C(=O)N[C@@H]3CCN(C#N)C3)c(F)c2F)cn1 [Example 131, (R)-N-(1-cyanopyrrolidin-3-yl)-2,3-difluoro-4-(1-methyl-1H-pyrazol-4-yl)benzamide] | < 0.1
(R)-N-(1-cyanopyrrolidin- 3-yl)-2-fluoro-3-(1-methyl- 1H-pyrazol-yl)benzamide [Example 104] | 0.1 to 1
N#CN1CCC(NC(=O)Nc2ccc(-c3ccccc3)cc2)C1 (stereo not drawn) [Example 254, 1-([1,1′-biphenyl]-4-yl)-3-(1-cyanopyrrolidin-3-yl)urea] | < 0.1
Cn1cc(-c2ccc3nc(C(=O)N[C@@H]4CCN(C#N)C4)c(F)n3c2)cn1 [Example 168, (R)-N-(1-cyanopyrrolidin-3-yl)-3-fluoro-6-(1-methyl-1H-pyrazol-4-yl)imidazo [1,2-a]pyridine-2-carboxamide] | 0.1 to 1

— patent US10689345B2, “1-cyano-pyrrolidine compounds as USP30 inhibitors” (Mission Therapeutics Limited, priority 2015, dated 2020)
